Laboratory results reported in patent US11261201B2 (priority 2018, dated 2022).
Values after ≈ are worked out from the molar mass of the structure shown. Structures can show the parent of a compound that is named as a salt. Where two headings read alike, the source gives them in different places.

What was measured:
[1] = system: H37RvMA; test: Tuberculosis Alamar Blue/Resazurin assay (MIC); format: cell-based; details: Mycobacterium tuberculosis, H37RV, read-out: WT H37Rv MTB Activity
[2] = system: E. coli; test: Gram negative MIC protocol (OD600, LB, 24 h); details: Escherichia coli
Method: (§1) Overnight bacterial cultures were grown in LB with no added antibiotics at 37° C. with shaking. A 1:1000 dilution of these cultures into LB was exposed to concentration gradients of compounds in 96-well plates (100 μL per well assay volume). Resulting plates were incubated at 37° C. for 24 h without shaking, and OD600 was measured at the end of the incubation. MICs were determined as the lowest concentrations at which OD600 remained at baseline.

[3] = system: A. baumannii; test: Gram negative MIC protocol (OD600, LB, 24 h); details: Acinetobacter baumannii
Method: as §1

[4] = read-out: MIC E. coli delta-TolC LB Media, E. coli delta-TolC, LB media, OD600
[5] = read-out: MIC WT E. coli LB Media, WT E. coli, LB media, OD600
[6] = read-out: MIC A. baumannii LB Media, A. baumannii, LB media, 24 h, OD600
[7] = read-out: MIC E. coli delta-TolC LB Media, E. coli delta-TolC strain, LB media, 24 h, OD600
[8] = read-out: MIC WT E. coli LB Media, wild-type E. coli, LB media, 24 h, OD600
[9] = read-out: MIC A. baumannii LB Media

Row | SMILES | MIC ([1]; WT H37Rv MTB) [µM] | MIC [2, 4] [µM] | MIC [2, 5] [µM] | MIC [3, 6] [µM] | MIC [2, 7] [µM] | MIC [2, 8] [µM] | MIC [1] [µM] | MIC [3, 9] [µM]
1 | CC(C)(CN1CCCOCC1)NCc1ccccc1 [B90] | > 150 | > 150 | > 150 | > 150 | – | – | – | –
2 | c1ccc(CNCCN2CCCCC2)cc1 [B223] | > 150 | – | – | > 300 | > 150 | > 300 | – | –
3 | COc1ccc(OCCCOc2ccccc2CNC(C)CC2CCCCC2)cc1 (centres unmarked) [B271] | 55 (≈ 22.6 µg/mL) | – | – | 55 (≈ 22.6 µg/mL) | 3 (≈ 1.23 µg/mL) | 150 (≈ 61.7 µg/mL) | – | –
4 | c1ccc(CNCCN2CCCc3ccccc32)cc1 [B148] | 150 (≈ 40 µg/mL) | > 150 | > 150 | > 150 | – | – | – | –
5 | c1ccc(OCC2CCOC2)c(CNCCC2CCCCC2)c1 (centres unmarked) [B330, 2-cyclohexyl-N-(2-((tetrahydrofuran-3-yl)methoxy)benzyl)ethanamine] | > 150 | – | – | > 150 | 33 (≈ 10.5 µg/mL) | > 150 | – | –
6 | OC1CCCCC1CCNCc1ccccc1 (centres unmarked) [B189] | > 150 | > 300 | > 300 | > 300 | – | – | – | –
7 | c1ccc(CNCCc2ccc3[nH]ccc3c2)cc1 [B56] | – | > 150 | > 150 | – | – | – | > 150 | > 150
8 | Cc1ccc(CNC2CCCCC2)cc1 [B137] | > 150 | > 150 | > 150 | > 150 | – | – | – | –
9 | CC(CC1CCCCC1)NCc1cccc2ccn(C)c12 (centres unmarked) [B441, 1-cyclohexyl-N-((1-methyl-1H-indol-7-yl)methyl)propan-2-amine hydrochloride] | 33.4 | 91 | > 150 | > 150 | – | – | – | –
10 | c1ccc(CNCC2CCCC2)cc1 [B141] | > 150 | > 150 | > 150 | > 150 | – | – | – | –
11 | O=C1Cc2ccccc2CN1CCC1CCOCC1 [B430, 2-(2-(tetrahydro-2H-pyran-4-yl)ethyl)-1,4-dihydroisoquinolin-3(2H)-one] | 55.1 (≈ 14.3 µg/mL) | > 150 | > 150 | > 150 | – | – | – | –
12 | c1ccc(CNCC2CCOc3ccccc32)cc1 (centres unmarked) [B23] | > 150 | > 150 | > 150 | > 150 | – | – | – | –
13 | c1ccc(CNCCc2ccc3ccccc3c2)cc1 [B133] | 55 (≈ 14.4 µg/mL) | > 150 | > 150 | > 150 | – | – | – | –
14 | CC(C)(C)OC(=O)N1CCC(CCNCc2ccccc2)CC1 [B216, tert-butyl 4-(2-(benzylamino)ethyl) piperidine-1-carboxylate] | > 150 | – | – | > 300 | > 300 | > 300 | – | –
15 | C[C@H](NCc1ccccc1)[C@H](O)c1ccc2c(c1)OCO2 [B53] | – | > 150 | > 150 | > 150 | – | – | > 150 | –
16 | c1ccc(CNCCN2CCCC3CCCC32)cc1 (centres unmarked) [B126] | > 150 | > 150 | > 150 | > 150 | – | – | – | –
17 | CC(CC1CCCCC1)N1Cc2ccccc2CC1=O (centres unmarked) [B412, 2-(1-cyclohexylpropan-2-yl)-1,4-dihydroisoquinolin-3(2H)-one] | 7.4 (≈ 2.01 µg/mL) | 55 (≈ 14.9 µg/mL) | > 150 | > 150 | – | – | – | –
18 | CC(CC1CCCCC1)NCc1ccccc1OCCOCC(F)(F)C(F)(F)F (centres unmarked) [B262] | 55 (≈ 23.3 µg/mL) | – | – | 91 (≈ 38.5 µg/mL) | 12 (≈ 5.08 µg/mL) | 150 (≈ 63.5 µg/mL) | – | –
19 | Cc1ccc2ncc(CCNCc3ccccc3)cc2c1 [B117] | > 150 | > 150 | > 150 | > 150 | – | – | – | –
20 | c1ccc(OCC2CCCCO2)c(CNCCC2CCCCC2)c1 (centres unmarked) [B328, 2-cyclohexyl-N-(2-((tetrahydro-2H-pyran-2-yl)methoxy)benzyl)ethanamine hydrochloride] | 150 | – | – | > 150 | 55 | > 150 | – | –
21 | C1=C(CCNCc2ccncc2)CCCC1 [B3] | > 150 | > 150 | > 150 | > 150 | – | – | – | –
22 | CC(CC1CCCCC1)NCc1ccccc1OCC1CCOCC1 (centres unmarked) [B281] | 91 (≈ 31.4 µg/mL) | – | – | 91 (≈ 31.4 µg/mL) | 4 (≈ 1.38 µg/mL) | > 150 | – | –
23 | CC1CCCC(CCNCc2ccccc2)C1 (centres unmarked) [B179] | 150 (≈ 34.7 µg/mL) | 230 (≈ 53.2 µg/mL) | > 300 | > 300 | – | – | – | –
24 | CC(CC1CCCCC1)NCc1ccccc1OCCCS(C)(=O)=O (centres unmarked) [B299] | > 150 | – | – | 150 (≈ 55.1 µg/mL) | 4 (≈ 1.47 µg/mL) | 150 (≈ 55.1 µg/mL) | – | –
25 | CC1(C)Cc2cccc(CCNCc3ccccc3)c2O1 [B108] | – | > 150 | > 150 | – | – | – | > 150 | > 150
26 | C1=C(CC2CCCCN2Cc2ccccc2)CCCC1 (centres unmarked) [B163] | > 150 | 300 (≈ 80.8 µg/mL) | > 300 | > 150 | – | – | – | –
27 | CC(CC1CCCCC1)NCc1cccc2ccn(Cc3ccccc3)c12 (centres unmarked) [B423, N-((1-benzyl-1H-indol-7-yl)methyl)-1-cyclohexylpropan-2-amine] | 150 (≈ 54.1 µg/mL) | 55 (≈ 19.8 µg/mL) | > 150 | > 150 | – | – | – | –

Row | SMILES | MIC ([1]; WT H37Rv MTB) [µM] | MIC [2, 4] [µM] | MIC [2, 5] [µM] | MIC [3, 6] [µM] | MIC [2, 7] [µM] | MIC [2, 8] [µM] | MIC [1] [µM] | MIC [3, 9] [µM]
28 | CC(CC1CCCCC1)NCc1ccccc1CCC(=O)O (centres unmarked) [B401, 3-(2-((1-cyclohexylpropan-2-ylamino)methyl)phenyl)propanoic acid trifluoroacetate] | – | 33 | > 150 | – | – | – | > 150 | > 150
29 | c1ccc(CNCCC2CCNCC2)cc1 [B215, N-benzyl-2-(piperidin-4-yl)ethanamine hydrochloride] | > 150 | – | – | > 300 | > 300 | > 300 | – | –
30 | CC(CC1CCCCC1)NCc1ccccc1OCC1CN(C2CC2)C(=O)O1 (centres unmarked) [B367] | > 150 | – | – | 150 (≈ 58 µg/mL) | 5 (≈ 1.93 µg/mL) | 150 (≈ 58 µg/mL) | – | –
31 | O=C(O)C(CC1CCCCC1)NCc1ccccc1 (centres unmarked) [B180] | > 150 | > 300 | > 300 | > 300 | – | – | – | –
32 | CC(CC1CCCCC1)NCc1ccccc1OCC(O)C(C)C (centres unmarked) [B342] | 91 (≈ 30.3 µg/mL) | – | – | 150 (≈ 50 µg/mL) | 4 (≈ 1.33 µg/mL) | 150 (≈ 50 µg/mL) | – | –
33 | OCc1cccc(CNCCC2CCCCC2)c1 [B375] | > 150 | – | – | > 150 | > 150 | > 150 | – | –
34 | C[C@H](NCc1ccccc1)C12CC3CC(CC(C3)C1)C2 [B197] | > 150 | 96 (≈ 25.9 µg/mL) | 170 (≈ 45.8 µg/mL) | 300 (≈ 80.8 µg/mL) | – | – | – | –
35 | CCN1CC(COc2ccccc2CNC(C)CC2CCCCC2)OC1=O (centres unmarked) [B369] | > 150 | – | – | > 150 | 3 (≈ 1.12 µg/mL) | > 150 | – | –
36 | CC(NCc1ccccc1)C1CC2CCC1CC2 (centres unmarked) [B62] | > 150 | > 150 | > 150 | > 150 | – | – | – | –
37 | CC(O)COc1ccccc1CNC(C)CC1CCCCC1 (centres unmarked) [B361] | > 150 | – | – | 91 (≈ 27.8 µg/mL) | 4 (≈ 1.22 µg/mL) | 91 (≈ 27.8 µg/mL) | – | –
38 | CC(CC1CCCO1)NCc1ccccc1 (centres unmarked) [B20] | > 150 | > 150 | > 150 | > 150 | – | – | – | –
39 | CCOCOc1ccccc1CNC(C)CC1CCCCC1 (centres unmarked) [B311] | > 150 | – | – | > 150 | 7 (≈ 2.14 µg/mL) | > 150 | – | –
40 | CC(CC1CCCCC1)NCc1ccccc1CS(=O)(=O)N(C)C (centres unmarked) [B437, 1-(2-(((1-cyclohexylpropan-2-yl)amino)methyl)phenyl)-N,N-dimethylmethane sulfonamide] | > 150 | 4 (≈ 1.41 µg/mL) | 150 (≈ 52.9 µg/mL) | > 150 | – | – | – | –
41 | C1=C(CCNCc2cccs2)CCCC1 [B152] | > 150 | > 150 | > 150 | > 150 | – | – | – | –
42 | CC(Cc1ccc2ccccc2c1)NCc1ccccc1 (centres unmarked) [B106] | – | > 150 | > 150 | > 150 | – | – | 150 (≈ 41.3 µg/mL) | –
43 | CC1(C)[C@@H]2C[C@](C)(CNCc3ccccc3)C[C@@H]21 [B88] | > 150 | > 150 | > 150 | > 150 | – | – | – | –
44 | CC(CC1CCCCC1)NCc1ccccc1OCc1cn2ccccc2n1 (centres unmarked) [B244] | 150 (≈ 56.6 µg/mL) | – | – | 150 (≈ 56.6 µg/mL) | 3 (≈ 1.13 µg/mL) | 91 (≈ 34.4 µg/mL) | – | –
45 | C[C@@H](NCc1ccccc1)C12CC3CC(CC(C3)C1)C2 [B196] | 55 (≈ 14.8 µg/mL) | 300 (≈ 80.8 µg/mL) | > 300 | > 300 | – | – | – | –
46 | c1ccc(CNCC2CCc3ccccc32)cc1 (centres unmarked) [B213, N-benzyl-1-(2,3-dihydro-1H-inden-1-yl)methanamine hydrochloride] | > 150 | – | – | > 300 | > 300 | > 300 | – | –
47 | CC(CC1CCCCC1)NCc1ccccc1OC1CCC(F)(F)CC1 (centres unmarked) [B396, 1-cyclohexyl-N-(2-((4,4-difluorocyclohexyl)oxy)benzyl)propan-2-amine] | 55.1 (≈ 20.1 µg/mL) | – | – | 150 (≈ 54.8 µg/mL) | 3 (≈ 1.1 µg/mL) | 150 (≈ 54.8 µg/mL) | – | –
48 | Nc1ccccc1CNCCC1CCCCC1 [B235, 2-((2-cyclohexylethylamino)methyl)aniline hydrochloride] | > 150 | – | – | > 300 | 96 | 96 | – | –
49 | CSCCCOc1ccccc1CNC(C)CC1CCCCC1 (centres unmarked) [B364] | 91 (≈ 30.5 µg/mL) | – | – | 150 (≈ 50.3 µg/mL) | 3 (≈ 1.01 µg/mL) | 150 (≈ 50.3 µg/mL) | – | –
50 | COc1ccc(CNCCC2=CCCCC2)cc1 [B12] | > 150 | > 150 | > 150 | > 150 | – | – | – | –
51 | CC(NCc1ccccc1)C1CC1c1ccc(F)cc1 (centres unmarked) [B76] | > 150 | > 150 | > 150 | > 150 | – | – | – | –
52 | C[C@@H](CC1=CCCCC1)NCc1ccccc1 [B171] | – | 19 (≈ 4.36 µg/mL) | 41 (≈ 9.4 µg/mL) | – | – | – | > 150 | 110 (≈ 25.2 µg/mL)
53 | C1=C(CCNCCc2ccccc2)CCCC1 [B151] | – | > 150 | > 150 | > 150 | – | – | > 150 | –
